Experimental data reported in patent US20130040951A9, “PROPHYLACTIC OR THERAPEUTIC AGENT FOR CANCER” (Takeda Pharmaceutical Company Limited, priority 2009, published 2013).

Tests used:
[1] = system: ES-2 ovarian cancer cells; test: Cell proliferation inhibitory test (CCK-8); assay type: cell-based; settings: compound final concentration 10 μM, 72 hr; CCK-8 absorbance at 450 nm; DMSO alone = 0%, cell-free well with medium only = 100%; read-out: inhibition rate (%) at 10 μM
Protocol: Cell Proliferation Inhibitory Test
ES-2 ovarian cancer cells were seeded in a 96 well plate at 1×10^3 cells/well, and incubated at 37° C. in the presence of 5% CO2 for 24 hr. Then, the compound was added at a final concentration of 10 μM, and the cells were cultured at 37° C. in the presence of 5% CO2 for 72 hr. For activity measurement of viable cells, a CCK-8 reagent (Cell Counting Kit-8, DOJINDO) was added, the cells were incubated at 37° C. for 1.5 hr, and the absorbance at 450 nm was measured by a microplate reader. Assuming the dehydrogenase activity in the DMSO alone addition group as 0%, and that in a cell-free well containing only a medium as 100%, the dehydrogenase activity of the compound addition group was calculated in percentage.

[2] = target: T1, fusion protein containing GAL4-DNA-binding domain and ERR full-length (Homo sapiens, UniProt P11474); test: Reporter assay system using 293T cells (GAL4-ERR luciferase, inverse agonist activity); assay type: cell-based; settings: HEK-293T; compound final concentration 3 μM, 1 day; luciferase activity in 293T cells; no compound = 0%, 10 μM XCT-790 = 100%; read-out: inhibition rate (%) at 3 μM
T1 construct: expressed in transfected cells; host or cells: 293T cells
T1 sequence (P11474 1-423): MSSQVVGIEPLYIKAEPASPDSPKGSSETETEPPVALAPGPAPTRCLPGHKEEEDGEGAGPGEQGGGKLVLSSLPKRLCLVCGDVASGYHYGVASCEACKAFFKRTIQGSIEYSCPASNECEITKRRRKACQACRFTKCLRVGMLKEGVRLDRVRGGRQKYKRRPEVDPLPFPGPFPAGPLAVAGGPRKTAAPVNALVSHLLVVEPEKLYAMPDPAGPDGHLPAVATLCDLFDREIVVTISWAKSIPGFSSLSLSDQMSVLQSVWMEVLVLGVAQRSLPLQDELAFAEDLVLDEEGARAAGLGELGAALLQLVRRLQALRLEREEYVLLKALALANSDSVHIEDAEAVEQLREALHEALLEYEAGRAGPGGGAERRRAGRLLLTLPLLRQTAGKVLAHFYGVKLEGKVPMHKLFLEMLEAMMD
Protocol: Compound Evaluation in Reporter Assay System Using 293T Cells
293T cells were seeded in a 150 cm^2 flask by 6,000,000 cells, and cultured in a medium (DMEM medium containing 10% inactivated Fetal Bovine Serum sterile filtered (FBS), 50 μg/ml Gentamicin, 10 mM HEPES buffer (pH 7.4)) at 37° C. in the presence of 5% CO2 for 1 day.
Then, vector DNA having a gene encoding a fusion protein containing GAL4-DNA-binding domain and ERR full-length and a vector DNA wherein luciferase gene is fused at the downstream of GAL4-binding sequence were cotransfected by a lipofection method, and the cells were cultured at 37° C. in the presence of 5% CO2 for 1 day. The cells were recovered, sown in a 384 well plate by 15,000 cells, and cultured at 37° C. in the presence of 5% CO2 for 3 hr. Furthermore, 50 μM XCT-790 (final concentration 10 μM) or 15 μM compound (final concentration 3 μM) was added, and the cells were cultured at 37° C. in the presence of 5% CO2 for 1 day. The luciferase activity was measured by using a multiplate reader Envision (Perkin Elmer Inc.). The inverse agonist activity of the compound was calculated in percentage with the luciferase activity inhibited by no addition of compound as 0%, and with addition of final concentration 10 μM of XCT-790 (N-[5-(trifluoromethyl)-1,3,4-thiadiazol-2-yl]-2-cyano-3-[3-methoxy-4-[2,4-di(trifluoromethyl)benzyloxy]phenyl]propenamide) as 100%.

[3] = target: T2, GST-ERRα ligand-binding domain (Homo sapiens, UniProt P11474); test: HTRF assay system using ERRα ligand-binding domain (biotinylated SRC-1 (676-700) peptide); assay type: biochemical; settings: compound final concentration 3 μM, room temperature 2 hr; 615/665 ratio value; no compound = 0%, 10 μM XCT-790 = 100%; read-out: inhibition rate (%) at 3 μM
T2 sequence (P11474 193-421 limits assumed): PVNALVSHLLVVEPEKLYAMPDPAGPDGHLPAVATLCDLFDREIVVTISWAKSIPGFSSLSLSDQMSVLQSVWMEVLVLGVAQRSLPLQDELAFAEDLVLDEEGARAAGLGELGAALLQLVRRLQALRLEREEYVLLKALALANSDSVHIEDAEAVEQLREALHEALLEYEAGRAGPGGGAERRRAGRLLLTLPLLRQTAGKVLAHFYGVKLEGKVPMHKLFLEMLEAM
Protocol: Compound Evaluation in HTRF Assay System Using ERRα Ligand-Binding Domain
An assay buffer (25 mM HEPES, 100 mM NaCl, 1 mM DTT, 0.1% BSA) containing 5 nM GST-ERRα ligand-binding domain (final concentration 1.25 nM) was added to a 384 well plate, then […] XCT-790 (final concentration 10 μM), or 12 μM compound (final concentration 3 μM) was added. Furthermore, an assay buffer containing XL665 conjugated Streptavidine, Eu^3+criptate conjugated GST antibody and 200 nM biotinylated SRC-1 (676-700) (final concentration 100 nM) was added, and the mixture was reacted at room temperature for 2 hr. Using Multiplate reader Envision (Perkin Elmer Inc.), after excitation at 320 nm, fluorescence values at 615 nm and 665 nm were measured. The inverse agonist activity of the compound was calculated in percentage with the 615/665 ratio value inhibited by no addition of compound as 0%, and with addition of final concentration 10 μM of XCT-790 (N-[5-(trifluoromethyl)-1,3,4-thiadiazol-2-yl]-2-cyano-3-[3-methoxy-4-[2,4-di(trifluoromethyl)benzyloxy]phenyl]propenamide) as 100%.

SMILES	inhibition at 3 µM [2] [%]	inhibition at 3 µM [3] [%]	inhibition at 10 µM [1] [%]
CCN1C(=N)/C(=C/c2ccc(Oc3ccc(C#N)cc3C(F)(F)F)c(OC)c2)NC1=O [Example 25, 4-{4-[(Z)-(1-ethyl-5-imino-2-oxoimidazolidin-4-ylidene)methyl]-2-methoxyphenoxy}-3-(trifluoromethyl)benzonitrile]	89	98	61
CCN1C(=N)/C(=C/c2ccc(OCc3ccc(C(F)(F)F)cc3C(F)(F)F)c(OC)c2)N(C)C1=O [Example 32, (4Z)-4-[(4-{[2,4-bis(trifluoromethyl)benzyl]oxy}-3-methoxyphenyl)methylidene]-1-ethyl-5-imino-3-methylimidazolidin-2-one]	91	103	98
CCN(CC)CCNC1=NC(=O)S/C1=C\c1ccc(Oc2ccc(C(F)(F)F)cc2Cl)c(OC)c1 [Example 94, (5Z)-5-({4-[2-chloro-4-(trifluoromethyl)phenoxy]-3-methoxyphenyl}methylidene)-4-{[2-(diethylamino)ethyl]amino}-1,3-thiazol-2(5H)-one]	90	107	100
COc1cc(/C=C2\SC(=O)N=C2NCCC2CCCN2C)ccc1Oc1ccc(C#N)c2ccccc12 (stereo not drawn) [Example 96, 4-(2-methoxy-4-{(Z)-[4-{[2-(1-methylpyrrolidin-2-yl)ethyl]amino}-2-oxo-1,3-thiazol-5(2H)-ylidene]methyl}phenoxy)naphthalene-1-carbonitrile]	87	114	102
CCN1C(=N)/C(=C\c2ccc(Oc3ccc(C#N)cc3C(F)(F)F)c(OC)c2)N(C)C1=O [Example 143, 4-{4-[(E)-(1-ethyl-5-imino-3-methyl-2-oxoimidazolidin-4-ylidene)methyl]-2-methoxyphenoxy}-3-(trifluoromethyl)benzonitrile]	94	92	88

More lines, main results first:

inhibition at 3 µM [2] [%]	inhibition at 3 µM [3] [%]	SMILES	inhibition at 10 µM [1] [%]
88	105	COc1cc(/C=C2\SC(=O)N=C2NCCC2CCCN2C)ccc1Oc1ccc(C#N)cc1C(F)(F)F (stereo not drawn) [Example 93, 4-(2-methoxy-4-{(Z)-[4-{[2-(1-methylpyrrolidin-2-yl)ethyl]amino}-2-oxo-1,3-thiazol-5(2H)-ylidene]methyl}phenoxy)-3-(trifluoromethyl)benzonitrile]	101
93	105	COc1cc(/C=C2\SC(=O)N=C2NCC(C)(C)O)ccc1Oc1ccc(C#N)cc1C(F)(F)F [Example 116, 4-{4-[(Z)-{4-[(2-hydroxy-2-methylpropyl)amino]-2-oxo-1,3-thiazol-5(2H)-ylidene}methyl]-2-methoxyphenoxy}-3-(trifluoromethyl)benzonitrile]	101
95	93	CCN1C(=N)/C(=C/c2ccc(Oc3ccc(C#N)cc3C(F)(F)F)c(OC)c2)N(C)C1=O [Example 145, 4-{4-[(Z)-(1-ethyl-5-imino-3-methyl-2-oxoimidazolidin-4-ylidene)methyl]-2-methoxyphenoxy}-3-(trifluoromethyl)benzonitrile]	98
